{"source": "paper PMC9276531", "about": "“Hyaluronic acid–GPRC5C signalling promotes dormancy in haematopoietic stem cells” (Nature Cell Biology, 2022)", "format_in_all_cases": "cell-based", "key": {"[1]": {"molecular_target": "T1, GPRC5C (Homo sapiens, UniProt Q9NQ84)", "T1 construct": "GPRC5C-Tango plasmid, N-terminal Flag, PRESTO-Tango reporter fusion; transfected in HTLA or HEK293T cells", "T1 sequence (Q9NQ84 24-441)": "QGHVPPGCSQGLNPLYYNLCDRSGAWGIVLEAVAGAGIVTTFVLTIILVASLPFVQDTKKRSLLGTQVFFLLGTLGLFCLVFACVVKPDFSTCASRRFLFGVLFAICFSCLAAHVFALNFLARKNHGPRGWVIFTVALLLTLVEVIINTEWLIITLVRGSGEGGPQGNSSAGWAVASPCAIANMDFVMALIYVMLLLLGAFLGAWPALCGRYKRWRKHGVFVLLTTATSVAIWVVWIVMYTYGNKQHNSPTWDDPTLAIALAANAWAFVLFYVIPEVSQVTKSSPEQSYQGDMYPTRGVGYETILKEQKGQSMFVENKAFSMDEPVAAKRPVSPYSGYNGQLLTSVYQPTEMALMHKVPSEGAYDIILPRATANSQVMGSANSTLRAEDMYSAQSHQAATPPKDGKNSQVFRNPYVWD", "assay": "PRESTO-Tango beta-arrestin recruitment, luciferase", "conditions": "HTLA cells, 24 h, HEPES/HBSS pH 7.4"}, "[2]": {"molecular_target": "T2, GPRC5C (Homo sapiens, UniProt Q9NQ84, N41L, form not given)", "T2 construct": "GPRC5C-Tango plasmid, N-terminal Flag, PRESTO-Tango reporter fusion; transfected in HTLA or HEK293T cells", "T2 sequence (Q9NQ84 12-429 N41L)": "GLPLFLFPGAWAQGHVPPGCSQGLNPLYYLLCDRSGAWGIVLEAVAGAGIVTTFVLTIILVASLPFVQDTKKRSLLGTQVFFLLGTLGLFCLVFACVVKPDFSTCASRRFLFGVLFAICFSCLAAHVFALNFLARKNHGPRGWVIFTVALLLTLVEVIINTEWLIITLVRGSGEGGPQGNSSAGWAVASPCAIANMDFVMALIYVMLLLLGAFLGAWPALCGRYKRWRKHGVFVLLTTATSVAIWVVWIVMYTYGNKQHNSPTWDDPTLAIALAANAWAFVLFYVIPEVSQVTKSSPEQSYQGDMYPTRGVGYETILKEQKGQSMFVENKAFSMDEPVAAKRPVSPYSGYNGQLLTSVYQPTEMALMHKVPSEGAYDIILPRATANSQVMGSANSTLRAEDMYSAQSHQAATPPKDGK", "assay": "PRESTO-Tango beta-arrestin recruitment, luciferase", "conditions": "HTLA cells, putative N-glycosylation site mutant"}, "[3]": {"molecular_target": "T1, GPRC5C", "assay": "competition with HA-fluorescein on transfected HEK293T cells, flow cytometry", "conditions": "100 uM NAG, 8 ug HA-fluorescein, 60 min, room temperature"}}}
{"smiles": "CC(=O)N[C@H]1C(O)O[C@H](CO)[C@@H](O)[C@@H]1O", "note": "(stereo partly drawn) [NAG, N-acetyl-D-glucosamine]", "values": [{"measurement": "concentration-response (agonist)", "setting": "[1]", "value": "HA and NAG treatments led to a dose-dependent response"}, {"measurement": "concentration-response (agonist)", "setting": "[2]", "value": "dampened the luciferase response that was previously elicited by treatment with HA and NAG"}, {"measurement": "competition with HA-fluorescein on transfected HEK293T cells, flow cytometry", "setting": "[3]", "value": "HA interaction with GPRC5C was reduced when NAG was present"}]}
